ChEMBL document CHEMBL1124539, “17-Desoxy estrogen analogues” (J Med Chem, 1989)
In brackets after ≈: the same amount, converted by molar mass.

How the values were obtained:
[1] = biological target: T1, Estrogen receptor (Rattus norvegicus) (UniProt P06211+Q62986)
Rattus norvegicus [2] = species on record: Rattus norvegicus
[3] = biological target: T1, Estrogen receptor (Rattus norvegicus); test: In vivo estrogenic receptor potency relative to ethynylestradiol in rat; format: functional, organism-based
[4] = biological target: T1, Estrogen receptor (Rattus norvegicus); remark: listed apart in the source
[5] = biological target: T1, Estrogen receptor (Rattus norvegicus); remark: listed apart in the source
Rattus norvegicus [6] = test: In vivo antifertility potency in rats at 200 ug/kg/day; format: functional
Estrogen receptor [7] = biological target: T2, Estrogen receptor (Homo sapiens, UniProt Q92731+P03372); test: Displacement of [3H]estradiol from estrogen receptor in squirrel monkey; format: protein assay
Estrogen receptor [8] = biological target: T2, Estrogen receptor; test: Displacement of [3H]estradiol from estrogen receptor in immature rabbit; format: protein assay, Oryctolagus cuniculus; conditions: target entry is the homologue from another species
Estrogen receptor [9] = biological target: T3, Estrogen receptor (Rattus norvegicus, UniProt P06211+Q62986); test: Displacement of [3H]estradiol from estrogen receptor in immature rat; format: protein assay
Estrogen receptor [10] = biological target: T3, Estrogen receptor; test: Displacement of [3H]estradiol from estrogen receptor in mature rat; format: protein assay
Rattus norvegicus [11] = test: In vivo anti-fertility activity in rat; format: functional
Estrogen receptor [12] = biological target: T2, Estrogen receptor; conditions: Macaca mulatta
Rattus norvegicus [13] = test: In vivo […] activity in rats; format: functional
Estrogen receptor [14] = biological target: T3, Estrogen receptor
Estrogen receptor [15] = biological target: T3, Estrogen receptor; remark: listed apart in the source
[16] = biological target: T1, Estrogen receptor (Rattus norvegicus); test: In vivo uterotrophic effect in immature rats; format: functional, organism-based
Estrogen receptor [17] = biological target: T2, Estrogen receptor; test: Estrogenic effect in rhesus monkey relative to ethynylestradiol; format: functional; conditions: Macaca mulatta; target entry is the homologue from another species
[18] = Selectivity ratio for antifertility and estrogenic potencies in rats; format: functional

SMILES	Estrogenic potency [1]	Antifertility potency (Rattus norvegicus [2])	also measured
CCCC[C@H]1CC[C@H]2[C@@H]3CCc4cc(O)ccc4[C@H]3CC[C@]12C	0.4	<10	–
CC[Si](C#C[C@H]1CC[C@H]2[C@@H]3CCc4cc(O)ccc4[C@H]3CC[C@]12C)(CC)CC	0.04	<4	–
CC[C@H]1CC[C@H]2[C@@H]3CCc4cc(O)ccc4[C@H]3CC[C@]12C (stereo in doubt; 8b) [listing 1 of 2 here]	–	–	Estrogenic potency [3]: 1; Uterotrophic effect [4]: 1; Uterotrophic effect [5]: 11
CC[C@H]1CC[C@H]2[C@@H]3CCc4cc(O)ccc4[C@H]3C(=O)C[C@]12C	–	>1000	–
C[C@H]1CC[C@H]2[C@@H]3CCc4cc(O)ccc4[C@H]3CC[C@]12C	0.3	20	–
CO/N=C1\CC[C@H]2[C@@H]3CCc4cc(O)ccc4[C@H]3CC[C@]12C	0.04	–	Antifertility potency (Rattus norvegicus [6]): 4
C#C[C@H]1CC[C@H]2[C@@H]3CCc4cc(O)ccc4[C@H]3CC[C@]12C	0.07	<10	–
CC12CCC3c4ccc(O)cc4CCC3C1C=CC2C#N (stereo unspecified)	< 0.1	–	Antifertility potency (Rattus norvegicus [6]): <4
COc1ccc2c(c1)CC[C@@H]1[C@@H]2CC[C@]2(C)[C@@H](c3ccccc3)CC[C@@H]12	< 0.1	<4	–
C[C@]12CC[C@@H]3c4ccc(O)cc4CC[C@H]3[C@@H]1CC[C@@H]2C#N	0.05	<10	–
CC[C@H]1CC[C@H]2[C@@H]3[C@H](O)Cc4cc(O)ccc4[C@H]3CC[C@]12C	0.04	<10	–
CC[C@H]1CC[C@H]2[C@@H]3C(C)Cc4cc(O)ccc4[C@H]3CC[C@]12C (stereo partly specified)	15	<200	–
C#C[C@]1(O)CC[C@H]2[C@@H]3[C@H](O)Cc4cc(O)ccc4[C@H]3CC[C@@]21C	0.3	66	EC50 (Estrogen receptor [7]): 52 mg/L (≈ 166 µM); EC50 (Estrogen receptor [8]): 36 mg/L (≈ 115 µM); EC50 (Estrogen receptor [9]): 18 mg/L (≈ 57.6 µM); EC50 (Estrogen receptor [10]): 6 mg/L (≈ 19.2 µM); Antifertility activity (Rattus norvegicus [11]): 66; Estrogenic effect (Estrogen receptor [12]): 100; Uterotrophic effect [4]: 0.1; Uterotrophic effect [5]: 10
[2H]C([2H])=C1CC[C@H]2[C@@H]3CCc4cc(O)ccc4[C@H]3CC[C@]12C	–	67	–
C=C1CC[C@H]2[C@@H]3CCc4cc(O)ccc4[C@H]3[C@H](O)C[C@]12C	0.02	10	–
CCC[C@H]1CC[C@H]2[C@@H]3CCc4cc(O)ccc4[C@H]3CC[C@]12C	0.8	20	–
CC[C@H]1CC[C@H]2[C@@H]3CCc4cc(O)ccc4[C@H]3CC[C@]12C (stereo in doubt; 8b) [listing 2 of 2 here]	–	66	EC50 (Estrogen receptor [7]): 60 mg/L (≈ 211 µM); EC50 (Estrogen receptor [8]): 11 mg/L (≈ 38.7 µM); Infertility activity (Rattus norvegicus [13]): 66; EC50 (Estrogen receptor [14]): 20 mg/L (≈ 70.3 µM); EC50 (Estrogen receptor [15]): 8 mg/L (≈ 28.1 µM)
CC(F)(F)[C@H]1CC[C@H]2[C@@H]3CCc4cc(O)ccc4[C@H]3CC[C@]12C	0.09	<20	–
C#C[C@]1(O)CC[C@H]2[C@@H]3CCc4cc(O)ccc4[C@H]3[C@@H](O)C[C@@]21C	120	200	EC50 (Estrogen receptor [7]): 150 mg/L (≈ 480 µM); EC50 (Estrogen receptor [8]): 8 mg/L (≈ 25.6 µM); Infertility activity (Rattus norvegicus [13]): 100; Infertility activity [16]: 150; EC50 (Estrogen receptor [14]): 5.2 mg/L (≈ 16.6 µM); EC50 (Estrogen receptor [15]): 16 mg/L (≈ 51.2 µM); Estrogenic effect (Estrogen receptor [12]): 500; Uterotrophic effect [4]: 5; Uterotrophic effect [5]: 19
CC[C@H]1CC[C@H]2[C@@H]3CCc4cc(O)ccc4[C@H]3CC[C@]12C (stereo in doubt; 8i) [listing 1 of 2 here]	–	<40	–
CC[Si](CC)(CC)CC[C@H]1CC[C@H]2[C@@H]3CCc4cc(O)ccc4[C@H]3CC[C@]12C	0.27	10	–
C=C1CCC2C3C=Cc4cc(O)ccc4C3CCC12C (stereo unspecified)	0.04	<5	–
C[C@]12CC[C@@H]3c4ccc(O)cc4CC[C@H]3[C@@H]1CC/C2=N\N	1.6	<10	–
CCC/C=C1\CC[C@H]2[C@@H]3CCc4cc(O)ccc4[C@H]3CC[C@]12C	0.2	<20	–

SMILES	Estrogenic potency [1]	Antifertility potency (Rattus norvegicus [2])	also measured
CC/C=C1\CC[C@H]2[C@@H]3CCc4cc(O)ccc4[C@H]3CC[C@]12C	0.4	<20	–
CC[Si](C#C[C@]1(O)CC[C@H]2[C@@H]3CCc4cc(O)ccc4[C@H]3CC[C@@]21C)(CC)CC	37	600	–
CC[C@H]1CC[C@H]2[C@@H]3CCc4cc(O)ccc4[C@H]3[C@@H](O)C[C@]12C	0.03	20	EC50 (Estrogen receptor [7]): 22 mg/L (≈ 73.2 µM); Estrogenic effect (Estrogen receptor [17]): < 8; Antifertility activity (Rattus norvegicus [11]): 20; EC50 (Estrogen receptor [14]): 5.6 mg/L (≈ 18.6 µM); Uterotrophic effect [4]: 0.04; Uterotrophic effect [5]: 2
CC[C@H]1CC[C@H]2[C@@H]3CCc4cc(O)ccc4[C@H]3[C@@H](OC)C[C@]12C	37	>2000	–
C[C@]12CC[C@@H]3c4ccc(O)cc4CC[C@H]3[C@@H]1CCC2=S	2.4	–	–
C=C(C)[C@H]1CC[C@H]2[C@@H]3CCc4cc(O)ccc4[C@H]3CC[C@]12C	0.08	<10	–
COc1ccc2c(c1)CCC1C2CCC2(C)C1C=C[C@@]2(O)c1ccccc1 (stereo partly specified)	0.14	–	Antifertility potency (Rattus norvegicus [6]): <10
C=C1CC[C@H]2[C@@H]3[C@H](O)Cc4cc(O)ccc4[C@H]3CC[C@]12C	0.1	<20	–
C=C[C@H]1CC[C@H]2[C@@H]3CCc4cc(O)ccc4[C@H]3CC[C@]12C	0.26	10	–
C#C[C@]1(O)CC[C@H]2[C@@H]3CCc4cc(O)ccc4[C@H]3[C@@H](OC)C[C@@]21C [MOXESTROL]	2000	1000	–
C[C@]12CC[C@@H]3c4ccc(O)cc4CC[C@H]3[C@@H]1CC/C2=N\O	0.28	–	Antifertility potency (Rattus norvegicus [6]): 4
C/C=C1\CC[C@H]2[C@@H]3CCc4cc(O)ccc4[C@H]3CC[C@]12C	0.3	10	–
CC(=O)[C@H]1CC[C@H]2[C@@H]3CCc4cc(O)ccc4[C@H]3CC[C@]12C	0.01	<4	–
C=C1C[C@]2(C)[C@@H](CC)CC[C@H]2[C@@H]2CCc3cc(O)ccc3[C@@H]12	64	400	–
C/C=C1/CC[C@H]2[C@@H]3CCc4cc(O)ccc4[C@H]3[C@H](O)C[C@]12C	0.04	<7	–
C[C@]12CC[C@@H]3c4ccc(O)cc4CC[C@H]3[C@@H]1CC/C2=N\Nc1ccccn1	0.1	<4	–
CC[C@H]1CC[C@H]2[C@@H]3CCc4cc(O)ccc4[C@H]3CC[C@]12C (stereo in doubt; 8i) [listing 2 of 2 here]	0.16	–	–
C=C1CC[C@H]2[C@@H]3CCc4cc(O)ccc4[C@H]3CC[C@]12C	0.5	40	EC50 (Estrogen receptor [8]): 1.5 mg/L (≈ 5.59 µM); EC50 (Estrogen receptor [10]): 0.8 mg/L (≈ 2.98 µM); Ratio [18]: 80; Estrogenic potency ([1]; tested as the 2H-labelled form): 0.65
CC[C@H]1CC[C@H]2[C@@H]3CCc4cc(O)ccc4[C@H]3[C@@](C)(O)C[C@]12C	0.05	<20	–
C[C@]12CC[C@@H]3c4ccc(O)cc4CC[C@H]3[C@@H]1CC/C2=C\C=O	0.05	10	–
C#C[C@]1(O)CC[C@H]2[C@@H]3CCc4cc(O)ccc4[C@H]3CC[C@@]21C [ETHINYL ESTRADIOL]	–	100	Infertility activity (Rattus norvegicus [13]): 100
C[C@]12CC[C@@H]3c4ccc(O)cc4CC[C@H]3[C@@H]1CC[C@@H]2CO	0.03	<110	–
COc1ccc2c(c1)CC[C@@H]1[C@@H]2CC[C@@]2(C)[C@H]1CC[C@@]2(O)c1ccccc1	0.69	10	–
